{
  "source": "patent US10968214B2",
  "about": "“KRas G12C inhibitors” (Eli Lilly and Company, priority 2018, dated 2021)",
  "key": {"SW1463": {"system": "SW1463", "assay": "Combination 4 day growth assay (Cell TiterGlo), SW1463", "format": "cell-based", "conditions": "Homo sapiens, single treatment, read-out: Absolute IC50", "method": "(§1) Cell lines for this study are obtained from ATCC and grown under ATCC recommended conditions, except for LXFA-983L, which is obtained from Oncotest/Charles Rivers Laboratories, Wilmington, Mass. and D122-96, which is obtained from L. Eisenbach (Weizman Institute of Science, Rehovot, Israel)—both grown under recommended conditions. […] The proliferation assay is performed as a 4 day growth assay using Cell TiterGlo® as the readout. Briefly, cells are plated in 96-well cell culture plates and allowed to adhere overnight at 37° C. The following day, cells are treated with compounds, either single treatments or combination treatments. First, the testing compounds are serially diluted in DMSO, followed by dilution into media as a 5× concentration with 1% DMSO, and finally added to cells in media to dilute to 1×. The cells are incubated at 37° C. for 4 more days. At the end of the incubation period, Cell TiterGlo® reagent is mixed and added to the wells. After 10 minutes, the luminescence is read by a Perkin Elmer Envision instrument. Absolute IC50 values generated by a 4-parameter logistics model for the single and combination treatments are generated, followed by combination indexes for each combination treatment and cell line. The combination IC50 values are adjusted based on the total concentration of each compound when added together. […] The combination index (CI) measures the degree to which the potency of a combination therapy differs from the expected-if-additive potency and is based on the Loewe definition of additivity.\n(§2) [formula] Where • CAy and CBy are the concentrations of therapies A and B that produce an effect, y, when given in combination • ICAy and ICBy are the concentrations of A and B that produce an effect, y, when given individually The biological interpretation of the combination index is as follows: synergistic if the combination index <0.5, additive if the combination index is between 0.5 and 2, and antagonistic if the combination index is >2."}, "Calu-1": {"system": "Calu-1", "assay": "Combination 4 day growth assay (Cell TiterGlo), Calu-1", "format": "cell-based", "conditions": "Homo sapiens, single treatment, read-out: Absolute IC50", "method": "as §1, §2"}, "MIA Paca-2": {"system": "MIA Paca-2", "assay": "Combination 4 day growth assay (Cell TiterGlo), MIA Paca-2", "format": "cell-based", "conditions": "Homo sapiens, single treatment, read-out: Absolute IC50", "method": "as §1, §2"}, "H358": {"system": "H358", "assay": "Combination 4 day growth assay (Cell TiterGlo), H358", "format": "cell-based", "conditions": "Homo sapiens, NCI-H358, 96 h, single treatment, read-out: Absolute IC50", "method": "as §1, §2"}, "SW837": {"system": "SW837", "assay": "Combination 4 day growth assay (Cell TiterGlo), SW837", "format": "cell-based", "conditions": "Homo sapiens, single treatment, read-out: Absolute IC50", "method": "as §1, §2"}, "D122-96": {"system": "D122-96", "assay": "Combination 4 day growth assay (Cell TiterGlo), D122-96", "format": "cell-based", "conditions": "Mus musculus, 96 h, single treatment, read-out: Absolute IC50", "method": "as §1, §2"}, "H1373": {"system": "H1373", "assay": "Combination 4 day growth assay (Cell TiterGlo), H1373", "format": "cell-based", "conditions": "Homo sapiens, NCI-H1373, 96 h, single treatment, read-out: Absolute IC50", "method": "(§3) Cell lines for this study are obtained from ATCC and grown under ATCC recommended conditions, except for LXFA-983L, which is obtained from Oncotest/Charles Rivers Laboratories, Wilmington, Mass. and D122-96, which is obtained from L. Eisenbach (Weizman Institute of Science, Rehovot, Israel)—both grown under recommended conditions. […] The proliferation assay is performed as a 4 day growth assay using Cell TiterGlo® as the readout. Briefly, cells are plated in 96-well cell culture plates and allowed to adhere overnight at 37° C. The following day, cells are treated with compounds, either single treatments or combination treatments. First, the testing compounds are serially diluted in DMSO, followed by dilution into media as a 5× concentration with 1% DMSO, and finally added to cells in media to dilute to 1×. The cells are incubated at 37° C. for 4 more days. At the end of the incubation period, Cell TiterGlo® reagent is mixed and added to the wells. After 10 minutes, the luminescence is read by a Perkin Elmer Envision instrument. Absolute IC50 values generated by a 4-parameter logistics model for the single and combination treatments are generated, followed by combination indexes for each combination treatment and cell line. The combination IC50 values are adjusted based on the total concentration of each compound when added together. […]"}, "H23": {"system": "H23", "assay": "Combination 4 day growth assay (Cell TiterGlo), H23", "format": "cell-based", "conditions": "Homo sapiens, NCI-H23, 96 h, single treatment, read-out: Absolute IC50", "method": "as §1, §2"}, "H1792": {"system": "H1792", "assay": "Combination 4 day growth assay (Cell TiterGlo), H1792", "format": "cell-based", "conditions": "Homo sapiens, NCI-H1792, 96 h, single treatment, read-out: Absolute IC50", "method": "as §3"}, "Kyse-410": {"system": "Kyse-410", "assay": "Combination 4 day growth assay (Cell TiterGlo), KYSE-410", "format": "cell-based", "conditions": "Homo sapiens, single treatment, read-out: Absolute IC50", "method": "as §3"}, "SW756": {"system": "SW756", "assay": "Combination 4 day growth assay (Cell TiterGlo), SW756", "format": "cell-based", "conditions": "Homo sapiens, single treatment, read-out: Absolute IC50", "method": "as §3"}, "H2030": {"system": "H2030", "assay": "Combination 4 day growth assay (Cell TiterGlo), H2030", "format": "cell-based", "conditions": "Homo sapiens, NCI-H2030, 96 h, single treatment, read-out: Absolute IC50", "method": "as §3"}, "UM-UC-3": {"system": "UM-UC-3", "assay": "Combination 4 day growth assay (Cell TiterGlo), UM-UC-3", "format": "cell-based", "conditions": "Homo sapiens, UMUC3, 96 h, single treatment, read-out: Absolute IC50", "method": "as §1, §2"}, "LXFA-983L": {"system": "LXFA-983L", "assay": "Combination 4 day growth assay (Cell TiterGlo), LXFA-983L", "format": "cell-based", "conditions": "96 h, single treatment, read-out: Absolute IC50", "method": "as §1, §2"}, "H2122": {"system": "H2122", "assay": "Combination 4 day growth assay (Cell TiterGlo), H2122", "format": "cell-based", "conditions": "Homo sapiens, NCI-H2122, 96 h, single treatment, read-out: Absolute IC50", "method": "as §1, §2"}, "SW1573": {"system": "SW1573", "assay": "Combination 4 day growth assay (Cell TiterGlo), SW1573", "format": "cell-based", "conditions": "Homo sapiens, 96 h, single treatment, read-out: Absolute IC50", "method": "as §1, §2"}, "H2122 xenograft": {"system": "H2122 xenograft", "assay": "Anti-tumor growth activity, lung cancer H2122 xenograft mouse model", "format": "in vivo", "conditions": "H2122 Lung; Abemaciclib 50 mg/kg QDx28", "method": "To evaluate in vivo target inhibition and anti-tumor efficacy of a compound, Human lung cancer cells, H358 or H2122 are implanted into nude mice xenograft tumor models. Either H358 or H2122 cells (10×10^6 in a 1:1 Matrigel® mix, 0.2 mL total volume) are implanted by subcutaneous injection in hind leg of nude female mice (Harlan Laboratories). A total of 5 mice each group are used for efficacy study, and a total of 3-4 mice each group are used for target engagement and PD study. Treatment is initiated with oral administration (gavage) of a test compound or vehicle (20% Captisol®, 25 mM phosphate, pH 2.0 in 0.2 mL volume when the tumor size reaches approximately […]. Tumor growth and body weight are monitored over time to evaluate efficacy and signs of toxicity. Bidimensional measurements of tumors are performed twice a week and tumor volumes are calculated based on mid-axis length and mid-axis width. Tumor volume data are transformed to a log scale to equalize variance across time and treatment groups. The log volume data are analyzed with a two-way repeated measures analysis of variance by time and treatment using the mixed procedures in SAS software (version 8.2). The correlation model for the repeated measures is spatial power. Treated groups are compared to the control group at each time point. The mixed procedure is also used separately for each treatment group to calculate adjusted means and standard errors at each time point. Both analyses account for the autocorrelation within each animal. The adjusted means and standard errors are plotted for each treatment group versus time.\nH2122 lung tumor cells (10×10^6) are implanted by subcutaneous injection in hind leg of nude female mice (Taconic Biosciences). A total of 5 mice each group are used for efficacy study."}, "SW837 xenograft": {"system": "SW837 xenograft", "assay": "Anti-tumor growth activity, SW837 colorectal xenograft", "format": "in vivo", "conditions": "Abemaciclib 50 mg/kg QDx28"}, "SW1463 xenograft": {"system": "SW1463 xenograft", "assay": "Anti-tumor growth activity, SW1463 colorectal xenograft", "format": "in vivo", "conditions": "Abemaciclib 50 mg/kg QDx28"}, "MiaPaca-2 xenograft": {"system": "MiaPaca-2 xenograft", "assay": "Anti-tumor growth activity, MiaPaca-2 pancreatic xenograft", "format": "in vivo", "conditions": "Abemaciclib 50 mg/kg QDx28"}, "EL3187 (PDX)": {"system": "EL3187 (PDX)", "assay": "Anti-tumor growth activity, EL3187 lung PDX", "format": "in vivo", "conditions": "EL3187 Lung PDX; Erlotinib 25 mg/kg QDx28"}},
  "note": "“And” between values parts separate entries of the source, which are not always exact repeats. Identical values can stand only once. Like-named read-outs stand apart in the source and are kept apart here.",
  "data": [
    {"smiles": "CCN1CCN(Cc2ccc(Nc3ncc(F)c(-c4cc(F)c5nc(C)n(C(C)C)c5c4)n3)nc2)CC1", "note": "[Abemaciclib, abemaciclib]", "values": [
      {"measurement": "IC50", "setting": "SW1463; 96 h", "result": 0.328, "unit": "µM"},
      {"measurement": "IC50", "setting": "Calu-1; 96 h", "result": "> 10", "unit": "µM"},
      {"measurement": "IC50", "setting": "MIA Paca-2; 96 h", "result": 0.755, "unit": "µM"},
      {"measurement": "IC50", "setting": "H358", "result": 1.23, "unit": "µM"},
      {"measurement": "IC50", "setting": "SW837; 96 h", "result": 3.59, "unit": "µM"},
      {"measurement": "IC50", "setting": "D122-96", "result": 5.05, "unit": "µM"},
      {"measurement": "IC50", "setting": "H1373", "result": "> 10", "unit": "µM"},
      {"measurement": "IC50", "setting": "H23", "result": 4.97, "unit": "µM"},
      {"measurement": "IC50", "setting": "H1792", "result": 1.1, "unit": "µM"},
      {"measurement": "IC50", "setting": "Kyse-410; 96 h", "result": 3.01, "unit": "µM"},
      {"measurement": "IC50", "setting": "SW756; 96 h", "result": 4.98, "unit": "µM"},
      {"measurement": "IC50", "setting": "H2030", "result": 9.03, "unit": "µM"},
      {"measurement": "IC50", "setting": "UM-UC-3", "result": 1.72, "unit": "µM"},
      {"measurement": "IC50", "setting": "LXFA-983L", "result": "> 10", "unit": "µM"},
      {"measurement": "IC50", "setting": "H2122", "result": 0.547, "unit": "µM"},
      {"measurement": "IC50", "setting": "SW1573", "result": 0.996, "unit": "µM"},
      {"measurement": "Tumor Growth Inhibition (%) or Regression (−%)", "setting": "H2122 xenograft", "result": "79.3 and 79.1"},
      {"measurement": "In Vivo Anti-Tumor Activities", "setting": "SW837 xenograft", "result": "−2.13"},
      {"measurement": "In Vivo Anti-Tumor Activities", "setting": "SW1463 xenograft", "result": 55.1},
      {"measurement": "In Vivo Anti-Tumor Activities", "setting": "MiaPaca-2 xenograft", "result": 46.88}
    ]},
    {"smiles": "C#Cc1cccc(Nc2ncnc3cc(OCCOC)c(OCCOC)cc23)c1", "note": "[Erlotinib, erlotinib]", "values": [
      {"measurement": "IC50", "setting": "SW1463; SW1463, 96 h", "result": 0.446, "unit": "µM"},
      {"measurement": "IC50", "setting": "Calu-1; Calu-1, 96 h", "result": "> 10", "unit": "µM"},
      {"measurement": "IC50", "setting": "MIA Paca-2; MIA PaCa-2, 96 h", "result": "> 10", "unit": "µM"},
      {"measurement": "IC50", "setting": "H358", "result": 0.247, "unit": "µM"},
      {"measurement": "IC50", "setting": "SW837; SW837, 96 h", "result": "> 10", "unit": "µM"},
      {"measurement": "IC50", "setting": "D122-96", "result": "> 10", "unit": "µM"},
      {"measurement": "IC50", "setting": "H1373", "result": "> 10", "unit": "µM"},
      {"measurement": "IC50", "setting": "H23", "result": "> 10", "unit": "µM"},
      {"measurement": "IC50", "setting": "H1792", "result": "> 10", "unit": "µM"},
      {"measurement": "IC50", "setting": "Kyse-410; KYSE-410, 96 h", "result": 0.469, "unit": "µM"},
      {"measurement": "IC50", "setting": "SW756; SW756, 96 h", "result": "> 10", "unit": "µM"},
      {"measurement": "IC50", "setting": "H2030", "result": 1.48, "unit": "µM"},
      {"measurement": "IC50", "setting": "UM-UC-3", "result": "> 10", "unit": "µM"},
      {"measurement": "IC50", "setting": "LXFA-983L; LXFA 983L", "result": 2.82, "unit": "µM"},
      {"measurement": "IC50", "setting": "H2122", "result": 0.352, "unit": "µM"},
      {"measurement": "IC50", "setting": "SW1573", "result": "> 10", "unit": "µM"},
      {"measurement": "In Vivo Anti-Tumor Activities", "setting": "EL3187 (PDX)", "result": 7.8}
    ]}
  ]
}
